According to patent US9446066B2, “Methods for reducing pulmonary uptake of intravenously injected cells” (priority 2010, dated 2016):
“And” between values parts separate entries of the source, which are not always exact repeats. Identical values can stand only once.

Experiments:
[1] = human patients, following an administration of dextran sulfate; cited from earlier work
T-lymphoblasts = test: PET-examination of lung uptake and distribution of transfused [18F]FDG-labeled T-lymphoblasts; format: in vivo, pig; details: for pulmonary uptake of T-lymphoblasts compared to intravenous administration alone (in words): pre-incubation and intravenous co-administration with dextran sulfate
Experimental: In this study we present a method to monitor transfusion of T-lymphoblasts in vivo in a porcine model by PET-imaging. Porcine T-lymphoblasts were labeled with [^18F]FDG prior to administration, and the kinetics and bio-distribution of the cells was monitored for up to 2 hours. [^18F]FDG is a functional analogue to glucose, but cannot be metabolized further than the initial phosphorylation by hexokinase and is trapped in the cell cytoplasm. The same concept has been applied by our group to image transplantation of islets of Langerhans in a porcine model and in the clinical setting.
In the present work, three modes of administration were compared; intravenous administration with or without co-administration of the complement and coagulatory inhibitor low molecular weight dextran sulphate (LMW-DS), and intraarterial administration.
Spleens from three months old pigs were surgically resected and stored in PBS for immediate preparation. Spleens were cut into smaller fragments and mashed first against a 1 mm steel mesh and a second time with a syringe rubber plunger against a fine nylon mesh. The tissue was resuspended in PBS and the T-lymphoblasts were isolated using Ficoll-Paque (GE-Healthcare Uppsala, Sweden) density gradient centrifugation. All T-lymphoblasts were activated with PHA (1 μg/mL) (Invitrogen, Carlsbad, Calif., USA) to simulate the clinical setting of adoptively transferred tumor infiltrating lymphocytes.
T-lymphoblasts were suspended in 10-15 mL of PBS and administered over 10 minutes either intravenously into the internal jugular vein (n=5) or intraarterially into the ascending aorta (n=1). Two of the pigs given intravenous administration were pretreated with LMW-DS (4.5 mg/kg) (Apoteket AB, Umeå, Sweden). The T-lymphoblasts were in these two cases co-administered intravenously together with LMW-DS (9 mg/kg, followed by continuous infusion of 7.2 mg/kg/h).
(§1) [^18F]FDG (t1/2=109.8 min) was prepared according to standard procedures (TRACERIab FxFDG, GE Medical Systems, USA). Cells were incubated with [^18F]FDG in 7-10 mL PBS for 60 minutes at 37° C. before being washed to remove excess radioactivity.
Six pigs were examined by PET after administration of [^18F]FDG-labeled T-lymphoblasts. A GE Discovery ST PET/CT scanner (n=3) or a Hamamatsu SHR-7700 scanner (n=3) was used. Dynamic sequences were acquired over the lungs and liver for up to 120 minutes. The kinetic data obtained was expressed as absolute number of cells or the percentage of administered cells. Results are given as averages±SEM.
The concentration and total amount of cells trapped in lung tissue could be quantified. Table 1 presents the amount of T-lymphoblasts in the lungs at 30 minutes. Between 80 and up to 635 million cells (16 to 79% of the grafts) was trapped in lung tissue after administration. To quantify the amount of cells trapped in hotspots we defined two levels of density: hotspots with a cellular density over either 250.000 cells/cc (moderate density) or over 500.000 cells/cc (high density).

Porcine T-lymphoblasts = test: T-lymphoblast labeling and in vitro retention of [18F]FDG; format: cell-based; details: mono-exponential fit, R^2=0.99; 6 time points over 120 minutes
Experimental: as §1
The retention (the rate of tracer washout through GLUTs after dephosphorylation of [^18F]FDG-6P) was measured in triplicates at 6 different time points over 120 minutes and the retention half-life was estimated by fitting the data to a mono-exponential curve.

[2] = range over the two LMW-DS pigs, lungs at 30 minutes

## low molecular weight dextran sulfate [LMW-DS]
[1]
  APTT safely achieved: about 250 s
T-lymphoblasts; at 30 minutes, single pig
  % of cells in lungs: 16.3% and 31.8%
T-lymphoblasts; at completed transfusion, intravenous co-administration of LMW-DS, pretreated pigs, n=2
  lung uptake (% of the administered T-lymphoblasts), average: 36.6%
T-lymphoblasts
  pulmonary uptake of T-lymphoblasts compared to intravenous administration alone (in words): lower
T-lymphoblasts; listed as dextran sulfate
  pulmonary uptake of T-lymphoblasts compared to intravenous administration alone (in words): decreased
T-lymphoblasts; [2]
  amount of cells in high density hotspots: 0-111 million cells
  cells in high density hotspots as % of lung uptake: 0-39%

## OC[C@H]1OC(O)[C@H]([18F])[C@@H](O)[C@@H]1O (stereo partly drawn) [[^18F]FDG, ^18F-2-fluoro-2-deoxy-D-glucose]
Porcine T-lymphoblasts
  [18F]FDG retention half-life: 5.32 h
